Article PMC4648258 (ACS infectious diseases, 2015)
Converted amounts (≈) assume the structure as drawn.

Columns and labels:
[1] = tested on: K. pneumoniae; test: MIC, Gram-negative panel; format: cell-based
[2] = tested on: VRE (Vancomycin-resistant E. faecium); test: MIC, Gram-positive panel; format: cell-based
[3] = target: MtThyX (Mycobacterium tuberculosis, UniProt P9WG57); test: cell-free ThyA and ThyX enzyme inhibition assay; format: biochemical, M. tuberculosis
[4] = tested on: M. chelonae; test: broth microdilution, A570 readout, non-tuberculosis mycobacteria; format: cell-based
[5] = tested on: nonreplicating M. tuberculosis H37Rv; format: cell-based, Mycobacterium tuberculosis
[6] = tested on: E. faecium; test: MIC, Gram-positive panel; format: cell-based
[7] = tested on: M. avium; test: broth microdilution, A570 readout, non-tuberculosis mycobacteria; format: cell-based
[8] = tested on: P. aeruginosa; test: MIC, Gram-negative panel; format: cell-based
[9] = tested on: E. cloacae; test: MIC, Gram-negative panel; format: cell-based
[10] = tested on: E. coli; test: MIC, Gram-negative panel; format: cell-based
[11] = tested on: Streptococcus faecium IFO3181; conditions: cited from earlier work
[12] = target: human ThyA (HsThyA) (Homo sapiens, UniProt P04818); test: cell-free ThyA and ThyX enzyme inhibition assay; format: biochemical; conditions: purified HsThyA, inhibitor 13 μM, compared to positive control 1843U89
[13] = tested on: Caco-2; test: Caco-2 bidirectional permeability; format: in vitro ADME; conditions: Caco-2, 5 μM
[14] = tested on: Staphylococcus aureus strains (FDA209P, ATCC6538P, KB199); conditions: three Staphylococcus aureus strains (FDA209P, ATCC6538P, KB199); cited from earlier work
[15] = tested on: Micrococcus luteus; conditions: cited from earlier work
[16] = tested on: B. thuringiensis; test: MIC, Gram-positive panel; format: cell-based
[17] = previous study ref 18; cited from earlier work
[18] = 100 mg/kg intraperitoneally; deposited solid residues; cited from earlier work
[19] = tested on: B. anthracis; format: cell-based
[20] = in vivo tolerance assessment, oral gavage; set-up: species or system female BALB/c mice; conditions: 100 mg/kg daily by oral gavage for 5 days, uninfected mice
[21] = tested on: M. kansasii; test: broth microdilution, A570 readout, non-tuberculosis mycobacteria; format: cell-based
[22] = tested on: M. bovis BCG; format: cell-based
[23] = tested on: M. marinum; test: broth microdilution, A570 readout, non-tuberculosis mycobacteria; format: cell-based
[24] = tested on: S. pneumoniae; test: MIC, Gram-positive panel; format: cell-based
[25] = tested on: M. abscessus; test: broth microdilution, A570 readout, non-tuberculosis mycobacteria; format: cell-based
[26] = tested on: E. faecalis; test: MIC, Gram-positive panel; format: cell-based
[27] = tested on: A. baumannii; test: MIC, Gram-negative panel; format: cell-based
[28] = tested on: M. tuberculosis; format: cell-based
[29] = tested on: B. cereus 14579; test: MIC, Gram-positive panel; format: cell-based
[30] = tested on: B. subtilis; test: MIC, Gram-positive panel; format: cell-based
[31] = tested on: M. smegmatis; test: broth microdilution, A570 readout, non-tuberculosis mycobacteria; format: cell-based
[32] = tested on: M. tuberculosis; test: LORA MBC99, hypoxic; format: cell-based, Mycobacterium tuberculosis; conditions: hypoxic conditions (LORA)
[33] = solubility; format: physicochemical; conditions: current study
[34] = tested on: S. pyogenes; test: MIC, Gram-positive panel; format: cell-based
[35] = tested on: B. cereus 10987; test: MIC, Gram-positive panel; format: cell-based
[36] = liver microsome stability; format: in vitro ADME; conditions: 1 μM, 30 min, 0.5 mg/mL human liver microsomes
[37] = tested on: P. mirabilis; test: MIC, Gram-negative panel; format: cell-based
[38] = target: thymidylate synthase (E. faecium); conditions: competitive with coenzyme 5,10-methylenetetrahydrofolate; cited from earlier work
[39] = target: M. tuberculosis ThyA (MtThyA) (Mycobacterium tuberculosis, UniProt P9WFR9); test: cell-free ThyA and ThyX enzyme inhibition assay; format: biochemical
[40] = liver microsome stability; format: in vitro ADME; conditions: 1 μM, 30 min, 0.5 mg/mL mouse liver microsomes
[41] = tested on: M. tuberculosis H37Rv; test: microplate Alamar Blue assay; format: cell-based; conditions: Mycobacterium tuberculosis

Chain of M. tuberculosis ThyA (MtThyA) (P9WFR9 whole entry): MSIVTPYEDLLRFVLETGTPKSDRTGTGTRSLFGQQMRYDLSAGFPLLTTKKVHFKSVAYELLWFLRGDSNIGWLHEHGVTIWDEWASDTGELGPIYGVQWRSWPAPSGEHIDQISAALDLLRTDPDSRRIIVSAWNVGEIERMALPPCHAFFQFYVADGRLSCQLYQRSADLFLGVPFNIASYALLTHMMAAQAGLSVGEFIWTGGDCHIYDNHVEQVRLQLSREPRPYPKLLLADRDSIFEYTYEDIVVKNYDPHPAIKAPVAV
Chain of human ThyA (HsThyA) (P04818 whole entry): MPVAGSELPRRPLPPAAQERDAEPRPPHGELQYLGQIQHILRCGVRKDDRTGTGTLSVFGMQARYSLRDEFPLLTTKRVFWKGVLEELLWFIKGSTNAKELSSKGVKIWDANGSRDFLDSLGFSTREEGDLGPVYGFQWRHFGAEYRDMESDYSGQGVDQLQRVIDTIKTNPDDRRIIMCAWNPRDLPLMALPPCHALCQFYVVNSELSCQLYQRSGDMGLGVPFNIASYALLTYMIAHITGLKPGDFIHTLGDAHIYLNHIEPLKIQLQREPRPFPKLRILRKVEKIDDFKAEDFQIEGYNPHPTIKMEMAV
Chain of MtThyX (P9WG57 whole entry): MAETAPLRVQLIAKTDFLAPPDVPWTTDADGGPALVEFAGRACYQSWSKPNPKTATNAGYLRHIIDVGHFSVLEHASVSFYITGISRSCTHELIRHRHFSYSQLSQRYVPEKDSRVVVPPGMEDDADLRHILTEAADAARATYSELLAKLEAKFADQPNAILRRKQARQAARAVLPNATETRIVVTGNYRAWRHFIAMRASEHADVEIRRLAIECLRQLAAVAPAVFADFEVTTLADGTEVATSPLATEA

Question: With `CCCc1c2c([nH]c(=O)c1C)C(=O)c1[nH]c(=O)c(C)c(CCC)c1C2=O` [Compound 3, diazaquinomycin A] as the compound, how does the MIC [1] read?
Answer: 128 µg/mL (≈ 361 µM)

Question: And the MIC [2]?
Answer: 32 µg/mL (≈ 90.3 µM)

Question: What about the “inhibition of enzyme activity” value [3] of the same compound?
Answer: did not significantly inhibit

Question: And the MIC [4]?
Answer: >7.5 µg/mL

Question: What about the MIC [5] of the same compound?
Answer: 0.72 µg/mL (≈ 2.03 µM)

Question: And the MIC [6]?
Answer: 8 µg/mL (≈ 22.6 µM)

Question: What about the MIC [7] of the same compound?
Answer: 3.85 µg/mL (≈ 10.9 µM)

Question: And the MIC [8]?
Answer: 128 µg/mL (≈ 361 µM)

Question: And the MIC [9]?
Answer: 64 µg/mL (≈ 181 µM)

Question: And the MIC [10]?
Answer: 128 µg/mL (≈ 361 µM)

Question: And the MIC [11]?
Answer: 6.25 µg/mL (≈ 17.6 µM)

Question: What about the “inhibition of enzyme activity” value [12] of the same compound?
Answer: did not significantly inhibit

Question: What about the efflux ratio [13] of the same compound?
Answer: 0.2

Question: And the “permeability (from apical to basolateral)” value [13]?
Answer: 4.4 ×10⁻⁶ cm/s

Question: And the “permeability (from basolateral to apical)” value [13]?
Answer: 0.9 ×10⁻⁶ cm/s

Question: What about the “recovery (from apical to basolateral)” value [13] of the same compound?
Answer: 82%

Question: And the “recovery (from basolateral to apical)” value [13]?
Answer: 98%

Question: What about the MIC [14] of the same compound?
Answer: 6.25 µg/mL (≈ 17.6 µM)

Question: And the MIC [15]?
Answer: 1.13 µg/mL (≈ 3.19 µM)

Question: What about the MIC [16] of the same compound?
Answer: 25 µg/mL (≈ 70.5 µM)

Question: What about the “maximum room temperature concentration in water” value [17] of the same compound?
Answer: 0.15 µg/mL

Question: And the toxicity in vivo [18]?
Answer: acute toxicity

Question: What about the MIC [19] of the same compound?
Answer: 6.25 µg/mL (≈ 17.6 µM)

Question: And the tolerance in vivo [20]?
Answer: well tolerated

Question: What about the MIC [21] of the same compound?
Answer: >7.5 µg/mL

Question: And the MIC [22]?
Answer: 0.12 µg/mL (≈ 0.339 µM)

Question: And the MIC [23]?
Answer: >7.5 µg/mL

Question: And the MIC [24]?
Answer: >10 µg/mL

Question: And the MIC [25]?
Answer: >7.5 µg/mL

Question: What about the MIC [26] of the same compound?
Answer: 8 µg/mL (≈ 22.6 µM)

Question: What about the MIC [27] of the same compound?
Answer: 128 µg/mL (≈ 361 µM)

Question: And the “reversal of antibiotic properties by thymidine” value [28]?
Answer: no reversal

Question: What about the MIC [29] of the same compound?
Answer: 25 µg/mL (≈ 70.5 µM)

Question: And the MIC [30]?
Answer: 100 µg/mL (≈ 282 µM)

Question: What about the MIC [31] of the same compound?
Answer: 4.56 µg/mL (≈ 12.9 µM)

Question: And the MBC99 [32]?
Answer: did not exhibit a significant MBC99

Question: What about the “maximum room temperature concentration in DMSO” value [33] of the same compound?
Answer: 600 µg/mL

Question: What about the MIC [34] of the same compound?
Answer: >25 µg/mL

Question: What about the MIC [35] of the same compound?
Answer: 12.5 µg/mL (≈ 35.3 µM)

Question: What about the parent compound remaining [36] of the same compound?
Answer: 96%

Question: And the MIC [37]?
Answer: 64 µg/mL (≈ 181 µM)

Question: What about the Ki [38] of the same compound?
Answer: 36 µM

Question: And the “inhibition of enzyme activity” value [39]?
Answer: did not significantly inhibit

Question: And the parent compound remaining [40]?
Answer: 98%

Question: With `O=[N+]([O-])c1cn2c(n1)OC[C@@H](OCc1ccc(OC(F)(F)F)cc1)C2` [PA824] as the compound, how does the MIC [41] read?
Answer: 0.01 µg/mL (≈ 0.0278 µM)
